Experiments:
TAR RNA = assay: Competition binding assay, FAM-labelled TAR RNA Duplex-1 / TAMRA-labelled ADP-1; parameters: species or system HIV; settings: for Ki: 2 nM FAM-labelled TAR RNA, 18 nM unlabelled TAR RNA, 20 nM TAMRA-labelled ADP-1, 0-100 μM cyclic peptide, average ± SD of three, read-out: Ki; for binding to TAR RNA (competitor efficiency): FIG. 8 and FIG. 9
Procedure: This experiment was performed with a starting condition in which there is an equimolar ratio of TAMRA-labelled ADP-1 peptide and TAR RNA (both labelled and unlabelled). A pre-mix is prepared on ice containing 2 nM FAM-labelled TAR RNA, 18 nM unlabelled TAR RNA and 20 nM TAMRA-labelled ADP-1 peptide diluted in TK buffer to provide the final concentrations (as detailed above) in each 200 μl reaction volume. The ADP-1 peptide was prepared as a 2 fold dilution series in TK buffer at 10 times the assay concentration and diluted 10 fold into the final assay volume. The competition assays were equilibrated for 15 minutes at room temperature and the fluorescence-emission spectra at 535 nm determined in a Wallac Victor™ 1420 following excitation at 485 nm.
Under these conditions, the Ki for the unlabelled ADP-1 competitor was measured as 100 nM.
TAMRA-labelled ADP-1 peptide and increasing concentrations of C5 cyclic peptide (SEQ ID 9). A pre-mix is prepared on ice containing the FAM-labelled TAR RNA, unlabelled TAR RNA and the TAMRA-labelled ADP-1 peptide diluted in TK buffer to provide the final concentrations (as detailed above) in each 200 μl reaction volume. The C5 cyclic peptide was prepared as a 2 fold dilution series in TK buffer at 10 times the assay concentration and diluted 10 fold in to the final assay volume.

RRE RNA = assay: Dabcyl-peptide binding to Fam-labelled RNA (quenching), RRE; parameters: species or system HIV; settings: for Kd: RRE, 110 mM KCl
Source text: (§1) A representative subset comprising 40 peptide sequences from the total of 243 possible sequences was synthesised and is shown in Table 6. The peptides from the library are: No. 3 (SEQ ID NO:11), 4 (SEQ ID NO:12), 5 (SEQ ID NO:13), 6 (SEQ ID NO:14), 7 (SEQ ID NO:15), 8 (SEQ ID NO:16), 9 (SEQ ID NO:17), 10 (SEQ ID NO:18), 11 (SEQ ID NO:19), 12 (SEQ ID NO:20), 13 (SEQ ID NO:21), 14 (SEQ ID NO:22), 15 (SEQ ID NO:23), 16 (SEQ ID NO:24), 17 (SEQ ID NO:25), 18 (SEQ ID NO:26), 19 (SEQ ID NO:27), 20 (SEQ ID NO:28), 21 (SEQ ID NO:29), 22 (SEQ ID NO:30), 23 (SEQ ID NO:31), 24 (SEQ ID NO:32), 25 (SEQ ID NO:33), 26 (SEQ ID NO:34), 27 (SEQ ID NO:35), 28 (SEQ ID NO:36), 29 (SEQ ID NO:37), 30 (SEQ ID NO:38), 31 (SEQ ID NO:39), 32 (SEQ ID NO:40), 33 (SEQ ID NO:41), 34 (SEQ ID NO:42), 35 (SEQ ID NO:43), 36 (SEQ ID NO:44), 37 (SEQ ID NO:45), 38 (SEQ ID NO:46), 39 (SEQ ID NO:47), 40 (SEQ ID NO:48), 41 (SEQ ID NO:49), 42 (SEQ ID NO:50). These peptides were assayed for their ability to bind to range of RNA sequences carrying fluorescein attached to the 5′ end, as shown in FIG. 25.
(§2) FIG. 26. presents binding data for the peptide sequence 5 (KKQKR) (SEQ ID NO: 13) and the 4 RNA sequences. Reactions (100 μl) containing Fam-labelled RNA (10 nM) were mixed with increasing concentrations of Dabcyl-labelled ADP-1 peptide (up to 250 nM) in 50 mM Tris/Cl, pH7.4, 20 mM or 110 mM KCl (as indicated), 5 μg/ml BSA, 0.01% Triton X-100, 1% DMSO. Fluorescence (excitation 490 nm/emission at 535 nm) was determined using a Victor plate reader.
(§3) Dissociation constants were determined by fitting a binding isotherm (1-site-binding) to the data using the equation:
(§4) Y=((Fmax−Fmin)−((Fmax−Fmin)*X/(Kd+X)))+Fmin
(§5) where Fmax is fluorescence in the absence of quencher, Fmin is fluorescence at saturation, and X is peptide concentration.

TAR bulge RNA = assay: Dabcyl-peptide binding to Fam-labelled RNA (quenching), TAR; parameters: species or system HIV; settings: 110 mM KCl
Source text: as §1, §2, §3, §4, §5

ss-19mer RNA = assay: Dabcyl-peptide binding to Fam-labelled RNA (quenching), single stranded RNA; settings: for Kd: ss-19mer, 110 mM KCl
Source text: as §1, §2, §3, §4, §5

GTPase-LHL RNA = assay: Dabcyl-peptide binding to Fam-labelled RNA (quenching), GTPase LHL; settings: for Kd: GTPase-LHL, 110 mM KCl; for binding to the GTPase RNA: FIG. 27
Source text: as §1, §2, §3, §4, §5

**Q.** What does the source list for “c(KRRFR) [C5] (cyclo(KRRFR); also: D-residues marked by underlining, not recoverable) [cyclic pentapeptide]”?
**A.** Ki (TAR RNA): 1870 ± 420 nM; binding to TAR RNA (competitor efficiency) (TAR RNA): most efficient competitors

**Q.** For cyclo(KRRFR) [C5/1], which Ki (TAR RNA) is on record?
**A.** The Ki was 15300 ± 2500 nM.

**Q.** For cyclo(KRRFR) [C5/2], which Ki (TAR RNA) is on record?
**A.** Its Ki is 12700 ± 6580 nM.

**Q.** For cyclo(KRRFR) [C5/3], which Ki (TAR RNA) is on record?
**A.** Its Ki is 15200 ± 3790 nM.

**Q.** What does the source list for cyclo(KRRFR) [C5/4]?
**A.** Ki (TAR RNA): 8280 ± 3010 nM; binding to TAR RNA (competitor efficiency) (TAR RNA): most efficient competitors

**Q.** How did the Ki (TAR RNA) turn out when cyclo(KRRFR) [C5/5] was run?
**A.** The Ki was 17100 ± 13000 nM.

**Q.** “library peptide Dabcyl-Thr-Arg-Lys-X-X-X-X-X-Arg-Lys-Ser-Gly with X5 = KKKKK” was tested. Which Kd (RRE RNA) did it give?
**A.** Its Kd is 12 nM.

**Q.** What about the Kd (TAR bulge RNA) of the same substance?
**A.** Its Kd is 24 nM.

**Q.** What about the Kd (ss-19mer RNA) of the same substance?
**A.** Its Kd is over 500 nM.

**Q.** And the Kd (GTPase-LHL RNA)?
**A.** Its Kd is 26 nM.

**Q.** How did the Kd (RRE RNA) turn out when “library peptide Dabcyl-Thr-Arg-Lys-X-X-X-X-X-Arg-Lys-Ser-Gly with X5 = KKKQR” was run?
**A.** Its Kd is 30 nM.

**Q.** And the Kd (TAR bulge RNA)?
**A.** Its Kd is 27 nM.

**Q.** What about the Kd (ss-19mer RNA) of the same substance?
**A.** Its Kd is over 500 nM.

**Q.** What about the Kd (GTPase-LHL RNA) of the same substance?
**A.** Its Kd is 76 nM.

**Q.** Which “binding of the peptide, measured by quenching of the fluorescenated RNA” value (RRE RNA; RRE sequence compared with the other RNAs, FIG. 26) does the source give for “library peptide Dabcyl-Thr-Arg-Lys-X-X-X-X-X-Arg-Lys-Ser-Gly with X5 = KKQKR” here?
**A.** Its value is “highest affinity binding”.

**Q.** And the Kd (RRE RNA)?
**A.** Its Kd is 15 nM.

**Q.** And the Kd (TAR bulge RNA)?
**A.** The Kd was 56 nM.

**Q.** And the “binding of the peptide, measured by quenching of the fluorescenated RNA” value (ss-19mer RNA; single stranded RNA, FIG. 26)?
**A.** The value was “no significant binding”.

**Q.** What about the Kd (ss-19mer RNA) of the same substance?
**A.** The Kd was over 500 nM.

**Q.** What about the Kd (GTPase-LHL RNA) of the same substance?
**A.** The Kd was 74 nM.

**Q.** “library peptide Dabcyl-Thr-Arg-Lys-X-X-X-X-X-Arg-Lys-Ser-Gly with X5 = KKQRR” was tested. Which Kd (RRE RNA) did it give?
**A.** The Kd was 20 nM.

**Q.** What about the Kd (ss-19mer RNA) of the same substance?
**A.** The Kd was over 500 nM.

**Q.** And the Kd (GTPase-LHL RNA)?
**A.** The Kd was 55 nM.

**Q.** With “library peptide Dabcyl-Thr-Arg-Lys-X-X-X-X-X-Arg-Lys-Ser-Gly with X5 = KKRQR” as the substance, how does the Kd (RRE RNA) read?
**A.** The Kd was 24 nM.

**Q.** What about the Kd (ss-19mer RNA) of the same substance?
**A.** The Kd was over 500 nM.

**Q.** And the Kd (GTPase-LHL RNA)?
**A.** Its Kd is 43 nM.

**Q.** “library peptide Dabcyl-Thr-Arg-Lys-X-X-X-X-X-Arg-Lys-Ser-Gly with X5 = KQKKR” was tested. Which Kd (TAR bulge RNA) did it give?
**A.** The Kd was 16 nM.

**Q.** Which Kd (TAR bulge RNA) does the source give for “library peptide Dabcyl-Thr-Arg-Lys-X-X-X-X-X-Arg-Lys-Ser-Gly with X5 = KQKRR” here?
**A.** The Kd was 11 nM.

**Q.** Which Kd (TAR bulge RNA) does the source give for “library peptide Dabcyl-Thr-Arg-Lys-X-X-X-X-X-Arg-Lys-Ser-Gly with X5 = KQQQR” here?
**A.** The Kd was over 500 nM.

**Q.** With “library peptide Dabcyl-Thr-Arg-Lys-X-X-X-X-X-Arg-Lys-Ser-Gly with X5 = KQRQR” as the substance, how does the Kd (TAR bulge RNA) read?
**A.** Its Kd is 9 nM.

**Q.** Which Kd (TAR bulge RNA) does the source give for “library peptide Dabcyl-Thr-Arg-Lys-X-X-X-X-X-Arg-Lys-Ser-Gly with X5 = QQQKR” here?
**A.** Its Kd is over 500 nM.

**Q.** Which Kd (ss-19mer RNA) does the source give for “library peptide Dabcyl-Thr-Arg-Lys-X-X-X-X-X-Arg-Lys-Ser-Gly with X5 = QQQQQ” here?
**A.** Its Kd is over 500 nM.

**Q.** And the “binding to the GTPase RNA” value (GTPase-LHL RNA)?
**A.** The value was “no significant binding”.

**Q.** And the Kd (GTPase-LHL RNA)?
**A.** The Kd was over 500 nM.

**Q.** For “library peptide Dabcyl-Thr-Arg-Lys-X-X-X-X-X-Arg-Lys-Ser-Gly with X5 = QQQRR”, which Kd (TAR bulge RNA) is on record?
**A.** The Kd was over 500 nM.

**Q.** For “library peptide Dabcyl-Thr-Arg-Lys-X-X-X-X-X-Arg-Lys-Ser-Gly with X5 = RQQQR”, which Kd (TAR bulge RNA) is on record?
**A.** Its Kd is over 500 nM.

**Q.** Which results are given for “library peptide Dabcyl-Thr-Arg-Lys-X-X-X-X-X-Arg-Lys-Ser-Gly with X5 = RRRRR”?
**A.** Kd (RRE RNA): 30 nM; Kd (ss-19mer RNA): 194 nM; binding to the GTPase RNA (GTPase-LHL RNA): Efficient binding; Kd (GTPase-LHL RNA): 16 nM

Source: patent publication US6573045B1, “Methods and kits for discovery of RNA-binding compounds” (Ribotargets, Ltd., priority 1998, dated 2003)
